Key:
METTL3/METTL14 = METTL3/METTL14 (Homo sapiens, UniProt Q86U44); test: METTL3-14 standard enzyme assay (3H-SAM flashplate scintillation); format: biochemical; settings: METTL3/METTL14 2.5 nM, RNA 100 nM, 3H-SAM 100 nM, 30 min
Procedure: METTL3-14 Standard Enzyme Assay
Assays were performed in a 25 μl-volume in 384-well V-bottom polypropylene microplates (Greiner Bio-One, cat. No. 781280) at ambient temperature. Optimized 1× assay buffer was 20 mM HEPES pH 7.5, 50 mM KCl, 250 μM MgCl2, 1 mM DTT, 0.01% Tween, 0.01% BSG, 0.004 U/μl RNAseOUT (cat. No. 10777019, ThermoFisher Scientific, Waltham, Mass.). For compound screening METTL3/METTL14 (final concentration, f.c.=2.5 nM) was added using a Multidrop Combi (ThermoFisher Scientific, Waltham, Mass.) and preincubated for 5 min. Reactions were started by adding 3′ biotinylated RNA (UCUGGACUAAA-biotin) (f.c.=100 nM) and 3H-SAM (f.c.=100 nM) substrates. Reactions proceeded for 30 minutes and were quenched with excess non-radioactive SAM (f.c.=15 μM). The reactions were then transferred to streptavidin-coated flashplates and incubated for 2 hours at 25° C. Following two washing cycles with 0.1% Tween-20, the plates were sealed and read on a TopCount (PerkinElmer, Waltham, Mass.) plate-based scintillation counter. For determination of kinetic parameters, reaction times were optimized so that measurements were taken during the initial velocity phase of the reaction.

PRMT5-MEP50 = PRMT5-MEP50 (Homo sapiens, UniProt O14744); test: PRMT5 assay (3H-SAM flashplate scintillation); format: biochemical; settings: PRMT5-MEP50 2.5 nM, histone H4 peptide 100 nM, 3H-SAM 250 nM, 60 min
Sequence of PRMT5-MEP50 (O14744 whole entry): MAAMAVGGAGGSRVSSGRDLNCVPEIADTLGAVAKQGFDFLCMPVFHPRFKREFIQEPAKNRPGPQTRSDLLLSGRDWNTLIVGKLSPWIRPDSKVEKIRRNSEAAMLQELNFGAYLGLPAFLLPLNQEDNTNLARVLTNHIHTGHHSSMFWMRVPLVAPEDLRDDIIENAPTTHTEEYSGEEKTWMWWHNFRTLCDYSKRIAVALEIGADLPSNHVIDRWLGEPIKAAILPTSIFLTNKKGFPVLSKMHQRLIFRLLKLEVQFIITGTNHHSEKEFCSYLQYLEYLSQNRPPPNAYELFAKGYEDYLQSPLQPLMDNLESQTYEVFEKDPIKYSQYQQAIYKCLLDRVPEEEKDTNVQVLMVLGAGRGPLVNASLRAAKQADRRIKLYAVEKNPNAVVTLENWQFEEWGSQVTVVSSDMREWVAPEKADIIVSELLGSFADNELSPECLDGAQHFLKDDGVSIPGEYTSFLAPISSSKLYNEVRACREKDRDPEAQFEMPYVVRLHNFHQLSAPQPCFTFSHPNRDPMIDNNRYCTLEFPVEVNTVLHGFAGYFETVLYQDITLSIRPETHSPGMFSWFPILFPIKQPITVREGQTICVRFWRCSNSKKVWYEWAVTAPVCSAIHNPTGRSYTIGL
Sequence of PRMT5-MEP50 (Q9BQA1 whole entry partner): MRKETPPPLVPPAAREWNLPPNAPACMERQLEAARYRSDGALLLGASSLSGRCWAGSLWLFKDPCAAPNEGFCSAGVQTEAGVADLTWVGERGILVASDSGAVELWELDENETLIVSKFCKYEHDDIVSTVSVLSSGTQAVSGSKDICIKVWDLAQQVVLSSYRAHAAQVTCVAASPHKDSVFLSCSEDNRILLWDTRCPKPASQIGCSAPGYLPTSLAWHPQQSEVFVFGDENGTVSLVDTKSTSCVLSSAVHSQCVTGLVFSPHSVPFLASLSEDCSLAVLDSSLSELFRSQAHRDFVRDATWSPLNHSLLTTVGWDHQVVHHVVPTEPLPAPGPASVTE
Procedure: Assays were performed in a 25 μl-volume in 384-well V-bottom polypropylene microplates (Greiner Bio-One, cat. No. 781280) at ambient temperature. Optimized 1× assay buffer was 20 mM Tris-HCl pH 8.0, 1 mM DTT, […]. For compound screening PRMT5-MEP50 (final concentration, f.c.=2.5 nM) was added using a Multidrop Combi (ThermoFisher Scientific, Waltham, Mass.) and preincubated for 5 min. Reactions were started by adding 3′ biotinylated histone H4 peptide acetylated on serine 1 (Ac-[…]-Biotin) (f.c.=100 nM) and 3H-SAM (f.c.=250 nM) substrates. Reactions proceeded for 60 minutes and were quenched with excess non-radioactive SAM (f.c.=15 μM). The reactions were then transferred to streptavidin-coated flashplates and incubated for 2 hours at 25° C. Following two washing cycles with 0.1% Tween-20, the plates were sealed and read on a TopCount (PerkinElmer, Waltham, Mass.) plate-based scintillation counter. For determination of kinetic parameters, reaction times were optimized so that measurements were taken during the initial velocity phase of the reaction.

Sequence of METTL3/METTL14 (Q86U44 whole entry, species assumed): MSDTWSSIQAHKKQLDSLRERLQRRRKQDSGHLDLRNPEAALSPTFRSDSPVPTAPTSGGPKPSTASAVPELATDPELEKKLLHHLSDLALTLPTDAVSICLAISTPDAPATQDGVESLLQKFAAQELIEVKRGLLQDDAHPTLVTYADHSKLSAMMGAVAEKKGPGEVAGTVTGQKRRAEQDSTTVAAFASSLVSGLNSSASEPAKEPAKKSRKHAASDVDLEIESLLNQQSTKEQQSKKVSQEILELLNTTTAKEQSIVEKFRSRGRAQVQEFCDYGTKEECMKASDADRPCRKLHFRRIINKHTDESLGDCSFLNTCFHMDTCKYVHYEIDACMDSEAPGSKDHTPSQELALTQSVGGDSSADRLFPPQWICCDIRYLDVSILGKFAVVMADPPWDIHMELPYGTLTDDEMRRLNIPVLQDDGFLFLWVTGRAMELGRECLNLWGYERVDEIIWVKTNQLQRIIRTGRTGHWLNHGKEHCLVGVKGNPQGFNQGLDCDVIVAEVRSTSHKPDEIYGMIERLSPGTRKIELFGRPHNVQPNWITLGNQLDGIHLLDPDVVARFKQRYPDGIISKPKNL
Sequence of METTL3/METTL14 (Q9HCE5 whole entry partner, species assumed): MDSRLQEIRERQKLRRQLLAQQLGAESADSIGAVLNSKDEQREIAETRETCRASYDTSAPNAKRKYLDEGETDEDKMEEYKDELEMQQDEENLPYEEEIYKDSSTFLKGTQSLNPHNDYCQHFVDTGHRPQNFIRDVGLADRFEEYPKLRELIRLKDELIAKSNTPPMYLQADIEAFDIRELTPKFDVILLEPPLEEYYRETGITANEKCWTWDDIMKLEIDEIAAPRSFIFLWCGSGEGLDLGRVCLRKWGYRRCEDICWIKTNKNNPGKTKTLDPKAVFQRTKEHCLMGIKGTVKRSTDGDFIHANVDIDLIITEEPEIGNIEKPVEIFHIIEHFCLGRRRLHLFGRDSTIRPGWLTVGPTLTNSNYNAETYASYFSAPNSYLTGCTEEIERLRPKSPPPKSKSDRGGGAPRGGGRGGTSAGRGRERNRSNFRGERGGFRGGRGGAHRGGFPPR

Compound | IC50 (METTL3/METTL14) | IC50 (PRMT5-MEP50)
Nc1ncnc2c1ccn2-c1csc(COc2ccc3ccc(N4CCCC4)nc3c2)n1 [Compound I-54] | 100 to 1000 nM | > 1000 nM
CC(C)c1cc(N)c2ccc(CCc3cncc(-n4cc(C5CCCC5)c5c(N)ncnc54)c3)cc2n1 [Compound I-130] | 10 to 100 nM | 
Cn1ccc(-c2cn(-c3cncc(COc4ccc(C(=O)NC5CCOCC5)c(N)c4)c3)c3ncnc(N)c23)n1 [Compound I-187] | 100 to 1000 nM | > 1000 nM
Cn1ccc(-c2cn(-c3cncc(COc4ccc5ccc(N6CCOCC6)nc5c4)c3)c3ncnc(N)c23)n1 [Compound I-196] | 10 to 100 nM | 100 to 1000 nM
CCc1cc(=O)c2ccc(OCc3cncc(-n4cc(C5CCCC5)c5c(N)ncnc54)c3)cc2[nH]1 [Compound I-105] | 100 to 1000 nM | > 1000 nM
Cn1ccc(-c2cn(-c3cncc(COc4cc(F)ccc4C(=O)NC4CCOCC4)c3)c3ncnc(N)c23)n1 [Compound I-181] | > 1000 nM | > 1000 nM
Cn1ccc(-c2cn(-c3cncc(CNC(=O)Nc4cccc(N5CCC5)n4)c3)c3ncnc(N)c23)n1 [Compound I-225, 1-({5-[4-amino-5-(1-methyl-1H-pyrazol-3-yl)-7H-pyrrolo[2,3-d]pyrimidin-7-yl]pyridin-3-yl}methyl)-3-[6-(azetidin-1-yl)pyridin-2-yl]urea] | > 1000 nM | > 1000 nM
Cn1ccc(-c2cn(-c3cncc(C[S+]([O-])c4ccc5ccc(N6CCC6)nc5c4)c3)c3ncnc(N)c23)n1 (stereo not shown) [Compound I-221, 7-[5-({[2-(azetidin-1-yl)quinolin-7-yl]sulfinyl}methyl)pyridin-3-yl]-5-(1-methyl-1H-pyrazol-3-yl)-7H-pyrrolo[2,3-d]pyrimidin-4-amine] | > 1000 nM | 100 to 1000 nM
CCc1cc(NCCOC)c2c(F)cc(OCc3cncc(-n4cc([C@@H]5CCCO5)c5c(N)ncnc54)c3)cc2n1 [Compound I-164] | 10 to 100 nM | 
CCc1cc(C)c2ccc(OCc3cncc(-n4cc([C@@H]5CCCO5)c5c(N)ncnc54)c3)cc2n1 [Compound I-168] | 10 to 100 nM | 
CC(C)c1cc(N)c2ccc(CCc3cncc(-n4ccc5c(N)ncnc54)c3)cc2n1 [Compound I-129] | 10 to 100 nM | 
CCc1cc(NCCOC)c2ncc(OCc3cncc(-n4cc([C@H]5CCCO5)c5c(N)ncnc54)c3)cc2n1 [Compound I-151] | 10 to 100 nM | 
Nc1ncnc2c1c([C@H]1CCCO1)cn2-c1cncc(COc2ccc3ccc(N4CCC4)nc3c2)n1 [Compound I-160] | 10 to 100 nM | 
CCc1cc(NC(C)=O)c2ccc(OCc3cncc(-n4cc([C@@H]5CCCO5)c5c(N)ncnc54)c3)cc2n1 [Compound I-165] | 10 to 100 nM | 
Nc1ncnc2c1c([C@@H]1CCCO1)cn2-c1cncc(COc2ccc3ccc(N4CCC4)nc3c2)n1 [Compound I-161] | < 10 nM | 
CCNc1ccc2ccc(CCc3cncc(-n4cc(C5CCCO5)c5c(N)ncnc54)c3)cc2n1 (stereo not shown) [Compound I-157] | 10 to 100 nM | 
CCc1cc(N2CCNCC2)c2ccc(OCc3cncc(-n4cc([C@H]5CCCO5)c5c(N)ncnc54)c3)cc2n1 [Compound I-148] | 10 to 100 nM | 
CCNc1ccc2ccc(CCc3cncc(-n4cc([C@@H]5CCCO5)c5c(N)ncnc54)n3)cc2n1 [Compound I-140] | < 10 nM | 
Nc1ncnc2c1c(Cl)cn2-c1cccc(COc2ccc3ccc(N4CCCC4)nc3c2)c1 [Compound I-63] | > 1000 nM | 
CCNc1ccc2ccc(CCc3cncc(-n4cc([C@H]5CCCO5)c5c(N)ncnc54)n3)cc2n1 [Compound I-139] | 10 to 100 nM | 
CCc1cc(NCCOC)c2c(F)cc(OCc3cncc(-n4cc([C@H]5CCCO5)c5c(N)ncnc54)c3)cc2n1 [Compound I-163] | 10 to 100 nM | 
Nc1cc(OCc2cncc(-n3cc([C@@H]4CCCO4)c4c(N)ncnc43)c2)ccc1C(=O)N1CCNCC1 [Compound I-166] | 100 to 1000 nM | 
CCc1cc(NCCOC)c2ccc(OCc3cncc(-n4cc([C@H]5CCCO5)c5c(N)ncnc54)c3)cc2n1 [Compound I-133] | 10 to 100 nM | 
Nc1ncnc2c1c(CO)cn2-c1cncc(COc2ccc3ccc(N4CCC4)nc3c2)c1 [Compound I-182] | < 10 nM | 

From patent US20220372040A1, “METTL3 MODULATORS” (Accent Therapeutics, Inc., priority 2020, published 2022)
